One assay has as its target EBI2 (Homo sapiens, UniProt P32249). The assay is described as follows: Cell-based luminescent assay (EBI2 modulation).
Settings: not given
In outline:
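Cells plated overnight at 37° C, then exposed to compound at 4-5 uM final with 80 nM 7a,25-OHC agonist for 60 min at 37° C. Luminescence read after 60 min detection at 25° C in the dark; values normalized to neutral and stimulator controls and plate-pattern corrected.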
Sequence of EBI2 (P32249 whole entry): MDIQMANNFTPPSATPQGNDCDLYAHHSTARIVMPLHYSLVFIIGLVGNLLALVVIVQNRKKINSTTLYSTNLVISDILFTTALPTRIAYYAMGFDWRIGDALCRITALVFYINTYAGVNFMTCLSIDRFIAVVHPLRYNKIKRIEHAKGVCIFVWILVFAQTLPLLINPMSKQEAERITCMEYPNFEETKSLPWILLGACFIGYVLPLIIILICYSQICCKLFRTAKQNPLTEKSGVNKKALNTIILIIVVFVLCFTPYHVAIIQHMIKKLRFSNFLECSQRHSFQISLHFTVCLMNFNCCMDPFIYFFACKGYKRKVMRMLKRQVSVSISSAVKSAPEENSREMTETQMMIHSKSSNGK
For orientation: IC50 means the concentration at which inhibition is half-maximal. For `O=C(c1cc2cc(Cl)ccc2[nH]1)N1CCC(Nc2ccc(F)cc2)CC1` [Compound C226, 5-chloroindol-2-yl 4-[(4-fluorophenyl)amino]piperidyl ketone], the IC50 was less than 0.1 µM.
As for `O=C(/C=C/c1ccccc1)N1CCN(Cc2cccc(F)c2)CC1` [Compound C240, (2E)-1-{4-[(3-fluorophenyl)methyl]piperazinyl}-3-phenylprop-2-en-1-one], the IC50 was less than 0.1 µM.
Compound `O=C(c1cc2cc(Cl)ccc2[nH]1)N1CCC(Nc2cccc(F)c2)CC1` [Compound C252, 5-chloroindol-2-yl 4-[(3-fluorophenyl)amino]piperidyl ketone] registered a half-maximal inhibitory concentration (IC50) of less than 0.1 µM.
For the compound `O=C(c1cc2cc(Cl)ccc2[nH]1)N1CCC(Nc2ccc(F)cc2F)CC1` [Compound C258, 4-[(2,4-difluorophenyl)amino]piperidyl 5-chloroindol-2-yl ketone], the IC50 is less than 0.1 µM.

Still in this assay, the particulars now being: cell-based luminescence; 7a,25-OHC final assay concentration 80 nM; 60 minutes incubation; read-out: IC50.
For the compound `O=C(C=Cc1ccc2c(c1)OCO2)N1CCN(C(=O)c2ccc(F)cc2)CC1` [Compound C216, 3-(2H-benzo[3,4-d]1,3-dioxolen-5-yl)-1-{4-[(4-fluorophenyl)carbonyl]piperazinyl}prop-2-en-1-one], the IC50 is less than 0.1 µM.
Take `O=C(c1cc2cc(-c3ccccc3)ccc2[nH]1)N1CCN(C(c2ccccc2)c2ccccc2)CC1` [Compound C217, 4-(diphenylmethyl)piperazinyl 5-phenylindol-2-yl ketone]: the IC50 was less than 0.1 µM.
On to `O=C(/C=C/c1ccc(C(F)(F)F)cc1)N1CCN(C(=O)c2cc3cc(Cl)ccc3[nH]2)CC1` [Compound C218, (2E)-1-{4-[(5-chloroindol-2-yl)carbonyl]piperazinyl}-3-[4-(trifluoromethyl)phenyl]prop-2-en-1-one], for which the IC50 is less than 0.1 µM.
For `Cc1ccc2[nH]c(C(=O)N3CCN(Cc4ccc(F)cc4)CC3)cc2c1` [Compound C219, 4-[(4-fluorophenyl)methyl]piperazinyl 5-methylindol-2-yl ketone], the half-maximal inhibitory concentration (IC50) is less than 0.1 µM.
As to `COc1ccc(-c2ccc3[nH]c(C(=O)N4CCN(C(c5ccccc5)c5ccccc5)CC4)cc3c2)cc1` [Compound C220, 4-(diphenylmethyl)piperazinyl 5-(4-methoxyphenyl)indol-2-yl ketone], the IC50 was less than 0.1 µM.
Same read-out and setting: in the case of `O=C(/C=C/c1ccc(F)cc1)N1CCN(S(=O)(=O)c2ccc3ccccc3c2)CC1` [Compound C221, (2E)-3-(4-fluorophenyl)-1-[4-(2-naphthylsulfonyl)piperazinyl]prop-2-en-1-one] it was less than 0.1 µM.
The same measure, in the same setting: in the case of `CCN1CCN(C(=O)/C=C/c2ccc(Br)cc2)CC1` [Compound C222, (2E)-3-(4-bromophenyl)-1-(4-ethylpiperazinyl)prop-2-en-1-one] it was less than 0.1 µM; in that of `Nc1ccc2cc(C(=O)N3CCN(C(c4ccccc4)c4ccccc4)CC3)ccc2c1` [Compound C223, 6-amino(2-naphthyl) 4-(diphenylmethyl)piperazinyl ketone], less than 0.1 µM.
On the same count and under the same terms, in the case of `Cc1ccc(C#CC(=O)N2CCN(C(=O)c3ccc(F)cc3C(F)(F)F)CC2)cc1` [Compound C224, 1-(4-{[4-fluoro-2-(trifluoromethyl)phenyl]carbonyl}piperazinyl)-3-(4-methylphenyl)prop-2-yn-1-one] it was less than 0.1 µM; in that of `O=C(/C=C/c1ccc(F)cc1)N1CCN(S(=O)(=O)c2cc(Cl)ccc2Cl)CC1` [Compound C225, (2E)-1-{4-[(2,5-dichlorophenyl)sulfonyl]piperazinyl}-3-(4-fluorophenyl)prop-2-en-1-one], less than 0.1 µM; in that of `Cc1cc2[nH]c(C(=O)N3CCN(C(c4ccccc4)c4ccccc4)CC3)cc2s1` [Compound C228, 4-(diphenylmethyl)piperazinyl 2-methylthiopheno[2,3-d]pyrrol-5-yl ketone], less than 0.1 µM.
`O=C(c1ccccc1)C1CCN(C(=O)c2cc3cc(Cl)ccc3[nH]2)CC1` [Compound C229, 5-chloroindol-2-yl 4-(phenylcarbonyl)piperidyl ketone]: the IC50 was less than 0.1 µM.
As to `O=C(/C=C/c1ccc(Cl)c(Cl)c1)N1CCN(S(=O)(=O)c2ccccc2)CC1` [Compound C230, (2E)-3-(3,4-dichlorophenyl)-1-[4-(phenylsulfonyl)piperazinyl]prop-2-en-1-one], the half-maximal inhibitory concentration (IC50) was less than 0.1 µM.
On to `O=C(C#Cc1ccc(C(F)(F)F)cc1)N1CCN(Cc2ccc(F)cc2)CC1` [Compound C231, 1-{4-[(4-fluorophenyl)methyl]piperazinyl}-3-[4-(trifluoromethyl)phenyl]prop-2-yn-1-one], for which the IC50 was less than 0.1 µM.
For the compound `CCN(CC)c1ccc(C(=O)N2CCN(C(=O)c3cc4cc(Cl)ccc4[nH]3)CC2)cc1` [Compound C232, 4-{[4-(diethylamino)phenyl]carbonyl}piperazinyl 5-chloroindol-2-yl ketone], the IC50 was less than 0.1 µM.
`CN(C)c1ccc(/C=C/C(=O)N2CCN(C(c3ccccc3)c3ccccc3)CC2)cc1` [Compound C233, (2E)-3-[4-(dimethylamino)phenyl]-1-[4-(diphenylmethyl)piperazinyl]prop-2-en-1-one]: the half-inhibitory concentration (IC50) is less than 0.1 µM.
Consider `O=C(C=Cc1ccc2c(c1)OCO2)N1CCN(C(=O)c2ccc(Br)cc2)CC1` [Compound C234, 3-(2H-benzo[3,4-d]1,3-dioxolan-5-yl)-1-{4-[(4-bromophenyl)carbonyl]piperazinyl}prop-2-en-1-one], for which the IC50 was less than 0.1 µM.
In the case of `O=C(/C=C/c1ccc(F)cc1)N1CCN(S(=O)(=O)c2ccc(F)cc2)CC1` [Compound C235, (2E)-3-(4-fluorophenyl)-1-{4-[(4-fluorophenyl)sulfonyl]piperazinyl}prop-2-en-1-one], the IC50 was less than 0.1 µM.
In the case of `COc1ccc(CN2CCN(C(=O)C#Cc3ccc(C)cc3)CC2)cc1` [Compound C236, 1-{4-[(4-methoxyphenyl)methyl]piperazinyl}-3-(4-methylphenyl)prop-2-yn-1-one], the IC50 was less than 0.1 µM.
`O=C(/C=C/c1ccc(F)cc1)N1CCN(S(=O)(=O)c2ccccc2F)CC1` [Compound C237, (2E)-3-(4-fluorophenyl)-1-{4-[(2-fluorophenyl)sulfonyl]piperazinyl}prop-2-en-1-one]: the half-inhibitory concentration (IC50) is less than 0.1 µM.
Consider `O=C(C=Cc1ccc2c(c1)OCO2)N1CCN(C(=O)c2ccc(Cl)cc2)CC1` [Compound C238, 3-(2H-benzo[3,4-d]1,3-dioxolen-5-yl)-1-{4-[(4-chlorophenyl)carbonyl]piperazinyl}prop-2-en-1-one], for which the IC50 is less than 0.1 µM.
For `Cc1ccccc1/C=C/C(=O)N1CCN(C(c2ccccc2)c2ccccc2)CC1` [Compound C241, (2E)-1-[4-(diphenylmethyl)piperazinyl]-3-(2-methylphenyl)prop-2-en-1-one], the IC50 is less than 0.1 µM.
As to `Cn1c(C(=O)N2CCN(C(c3ccccc3)c3ccccc3)CC2)cc2ccccc21` [Compound C242, 4-(diphenylmethyl)piperazinyl 1-methylindol-2-yl ketone], the 50% inhibitory concentration (IC50) is less than 0.1 µM.
The same measure, in the same setting: as for `O=C(c1ccccc1)N1CCN(C(=O)c2cc3cc(Cl)ccc3[nH]2)CC1` [Compound C243, 5-chloroindol-2-yl 4-(phenylcarbonyl)piperazinyl ketone], the figure is less than 0.1 µM; as for `Cc1ccc2[nH]c(C(=O)N3CCN(Cc4ccc(C(C)(C)C)cc4)CC3)cc2c1` [Compound C244, 4-{[4-(tert-butyl)phenyl]methyl}piperazinyl 5-methylindol-2-yl ketone], less than 0.1 µM.
On the same count and under the same terms, as for `Cc1ccc(C#CC(=O)N2CCN(Cc3ccc(Cl)cc3)CC2)cc1` [Compound C245, 1-{4-[(4-chlorophenyl)methyl]piperazinyl}-3-(4-methylphenyl)prop-2-yn-1-one], the figure is less than 0.1 µM; as for `O=C(c1cc2cc(C(F)(F)F)ccc2[nH]1)N1CCN(C(=O)c2ccc(Cl)cc2Cl)CC1` [Compound C246, 4-[(2,4-dichlorophenyl)carbonyl]piperazinyl 5-(trifluoromethyl)indol-2-yl ketone], less than 0.1 µM.
Turning to `O=C(c1ccc2sccc2c1)N1CCN(C(c2ccccc2)c2ccccc2)CC1` [Compound C247, benzo[b]thiophen-5-yl 4-(diphenylmethyl)piperazinyl ketone], the IC50 is less than 0.1 µM.
For the compound `O=C(/C=C/c1ccccc1)N1CCN(Cc2ccc(F)cc2)CC1` [Compound C248, (2E)-1-{4-[(4-fluorophenyl)methyl]piperazinyl}-3-phenylprop-2-en-1-one], the IC50 is less than 0.1 µM.
Consider `O=C(C#Cc1ccc(Cl)c(Cl)c1)N1CCN(C(=O)c2ccc(C(F)(F)F)cc2)CC1` [Compound C249, 3-(3,4-dichlorophenyl)-1-(4-{[4-(trifluoromethyl)phenyl]carbonyl}piperazinyl)prop-2-yn-1-one], for which the IC50 is less than 0.1 µM.
Take `O=C(c1cc2cc(C(F)(F)F)ccc2[nH]1)N1CCN(Cc2cc(F)cc(F)c2)CC1` [Compound C251, 4-[(3,5-difluorophenyl)methyl]piperazinyl 5-(trifluoromethyl)indol-2-yl ketone]: the half-inhibitory concentration (IC50) is less than 0.1 µM.
With `O=C(C#Cc1ccc(F)cc1)N1CCN(C(=O)c2ccc(C(F)(F)F)cc2)CC1` [Compound C253, 3-(4-fluorophenyl)-1-(4-{[4-(trifluoromethyl)phenyl]carbonyl}piperazinyl)prop-2-yn-1-one], the half-inhibitory concentration (IC50) was less than 0.1 µM.
Take `O=C(c1ccc(Cl)cc1)N1CCN(C(=O)c2cc3ccc(Cl)cc3[nH]2)CC1` [Compound C255, 6-chloroindol-2-yl 4-[(4-chlorophenyl)carbonyl]piperazinyl ketone]: the concentration for half-maximal inhibition (IC50) is less than 0.1 µM.
For `COc1ccc(C(=O)N2CCN(C(=O)C=Cc3ccc4c(c3)OCO4)CC2)cc1` [Compound C256, 3-(2H-benzo[3,4-d]1,3-dioxolen-5-yl)-1-{4-[(4-methoxyphenyl)carbonyl]piperazinyl}prop-2-en-1-one], the IC50 was less than 0.1 µM.
For `O=C(c1cnc2ccc(Cl)cc2c1)N1CCN(C(c2ccccc2)c2ccccc2)CC1` [Compound C257, 4-(diphenylmethyl)piperazinyl 6-chloro(3-quinolyl) ketone], the IC50 is less than 0.1 µM.
